How the values were obtained:
ABL P210WT BAF3 cells = biological target: T1, ABL P210WT BAF3 cells (Homo sapiens, UniProt P00519); test: 96-well XTT cell survival assay, BaF3 ABL P210WT; type: cell-based; settings: ABL P210 WT, 72 hours, read-out: CELL BIO ABL P210WT BAF3 XTT (IC50)
T1 construct: ABL P210WT BAF3; fused on or other part: P11274 (Breakpoint cluster region protein)
Outline: (§1)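 Ba/F3 cells in RPMI 1640 with 10% FBS (IL-3 medium for maintenance) were seeded at 5000-8000 cells/well and exposed to compound dilutions in duplicate for 72 h at 37° C. Viability read by XTT/PMS, absorbance 405 nm minus 650 nm after 2-6 h.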

[1] = biological target: T2, purified and unphosphorylated T315I Abl kinase domain (ABL_T315I_0P) (Mus musculus, UniProt P00520, T315I); test: c-Abl T315I (unphosphorylated kinase domain) pyruvate kinase/lactate dehydrogenase coupled enzyme assay; type: biochemical; settings: 10 μM ATP
T2 construct: The c-Abl T3151 KD (kinase domain) was purified as follows; Met-Ser-Leu (vector-derived residues) (N); made in house; host or cells: E. coli BL21(DE3) strains (Codon+RIL, or pSA0145 for the lambda phosphatase co-expression plasmid)
T2 sequence (P00520 242-493 T315I limits assumed): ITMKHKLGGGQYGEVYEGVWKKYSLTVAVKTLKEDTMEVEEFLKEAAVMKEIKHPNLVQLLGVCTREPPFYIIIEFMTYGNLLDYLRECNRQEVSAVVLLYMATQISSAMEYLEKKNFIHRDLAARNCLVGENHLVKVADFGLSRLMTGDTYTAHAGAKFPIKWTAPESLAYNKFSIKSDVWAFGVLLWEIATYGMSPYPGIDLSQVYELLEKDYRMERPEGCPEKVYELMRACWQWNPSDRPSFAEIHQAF

ABL T315I BAF3 cells = biological target: T3, ABL T315I BAF3 cells (Homo sapiens, UniProt P00519, T315I, cells depend on it); test: 96-well XTT cell survival assay, BaF3 ABL T315I; type: cell-based; settings: 72 hours, read-out: CELL BIO ABL T315I BAF3 XTT (IC50)
T3 construct: ABL T315I BAF3; fused on or other part: P11274 (Breakpoint cluster region protein)
Outline: as §1

| SMILES | ABL_T315I_0P (IC50) [1] | GI50 (ABL P210WT BAF3 cells) | GI50 (ABL T315I BAF3 cells) |
| --- | --- | --- | --- |
| COc1ccccc1-c1c[nH]c2ncc(-c3cncc(CC(=O)N(C)C)c3)c(Cl)c12 [2-{5-[4-Chloro-3-(2-methoxy-phenyl)-1H-pyrrolo[2,3-b]pyridin-5-yl]-pyridin-3-yl}-N,N-dimethyl-acetamide] | D (<0.01 μM) | 10 to 100 nM | 10 to 100 nM |
| COc1ncccc1-c1c[nH]c2ncc(-c3cncc(C(O)C(=O)N(C)C)c3)c(Cl)c12 (stereo not drawn) [2-{5-[4-Chloro-3-(2-methoxy-pyridin-3-yl)-1H-pyrrolo[2,3-b]pyridin-5-yl]-pyridin-3-yl}-2-hydroxy-N,N-dimethyl-acetamide] | D (<0.01 μM) | 10 to 100 nM | 100 to 1000 nM |
| COc1cnccc1-c1c[nH]c2ncc(-c3cncc(C(O)C(=O)N(C)C)c3)c(Cl)c12 (stereo not drawn) [2-{5-[4-Chloro-3-(3-methoxy-pyridin-4-yl)-1H-pyrrolo[2,3-b]pyridin-5-yl]-pyridin-3-yl}-2-hydroxy-N,N-dimethyl-acetamide] | D (<0.01 μM) | > 1000 nM | > 1000 nM |
| CN(C)C(=O)C(O)c1cncc(-c2cnc3[nH]cc(-c4ccc(F)cc4)c3c2Cl)c1 (stereo not drawn) [2-{5-[4-Chloro-3-(4-fluoro-phenyl)-1H-pyrrolo[2,3-b]pyridin-5-yl]-pyridin-3-yl}-2-hydroxy-N,N-dimethyl-acetamide] | C (0.1-0.01 μM) | 100 to 1000 nM | > 1000 nM |
| COc1ccccc1-c1c[nH]c2ncc(-c3cncc(C(=O)C(=O)N(C)C)c3)c(OC)c12 [2-{5-[4-Methoxy-3-(2-methoxy-phenyl)-1H-pyrrolo[2,3-b]pyridin-5-yl]-pyridin-3-yl}-N,N-dimethyl-2-oxo-acetamide] | D (<0.01 μM) | 100 to 1000 nM | 10 to 100 nM |
| CN(C)C(=O)c1nc(-c2cnc3[nH]cc(-c4ccccc4)c3c2Cl)cnc1N [3-Amino-6-(4-chloro-3-phenyl-1H-pyrrolo[2,3-b]pyridin-5-yl)-pyrazine-2-carboxylic acid dimethylamide] | D (<0.01 μM) | 100 to 1000 nM | 100 to 1000 nM |
| COc1ccccc1-c1c[nH]c2ncc(-c3cccc(C(=O)N(C)C)c3)c(Cl)c12 [3-[4-Chloro-3-(2-methoxy-phenyl)-1H-pyrrolo[2,3-b]pyridin-5-yl]-N,N-dimethyl-benzamide] | D (<0.01 μM) | 10 to 100 nM | 10 to 100 nM |
| CN(C)C(=O)c1cncc(-c2cnc3[nH]cc(-c4ccccc4)c3c2Cl)c1 [5-(4-Chloro-3-phenyl-1H-pyrrolo[2,3-b]pyridin-5-yl)-N,N-dimethyl-nicotinamide] | D (<0.01 μM) | > 1000 nM | > 1000 nM |
| COc1ccccc1-c1c[nH]c2ncc(Br)c(N)c12 [5-Bromo-3-(2-methoxy-phenyl)-1H-pyrrolo[2,3-b]pyridin-4-ylamine] | C (0.1-0.01 μM) | > 1000 nM | > 1000 nM |
| CN(C)C(=O)c1cncc(-c2cnc3[nH]cc(-c4cccc(F)c4F)c3c2Cl)c1 [5-[4-Chloro-3-(2,3-difluoro-phenyl)-1H-pyrrolo[2,3-b]pyridin-5-yl]-N,N-dimethyl-nicotinamide] | D (<0.01 μM) | 100 to 1000 nM | 100 to 1000 nM |
| CN(C)C(=O)c1cncc(-c2cnc3[nH]cc(-c4ccc(F)cc4F)c3c2Cl)c1 [5-[4-Chloro-3-(2,4-difluoro-phenyl)-1H-pyrrolo[2,3-b]pyridin-5-yl]-N,N-dimethyl-nicotinamide] | C (0.1-0.01 μM) | > 1000 nM | > 1000 nM |
| CNC(=O)c1cncc(-c2cnc3[nH]cc(-c4ccccc4F)c3c2Cl)c1 [5-[4-Chloro-3-(2-fluoro-phenyl)-1H-pyrrolo[2,3-b]pyridin-5-yl]-N-methyl-nicotinamide] | C (0.1-0.01 μM) | > 1000 nM | > 1000 nM |
| CSc1ccccc1-c1c[nH]c2ncc(-c3cncc(C(=O)N(C)C)c3)c(Cl)c12 [5-[4-Chloro-3-(2-methylsulfanyl-phenyl)-1H-pyrrolo[2,3-b]pyridin-5-yl]-N,N-dimethyl-nicotinamide] | D (<0.01 μM) | > 1000 nM | > 1000 nM |
| Cc1noc(C)c1-c1c[nH]c2ncc(-c3cncc(C(=O)N(C)C)c3)c(Cl)c12 [5-[4-Chloro-3-(3,5-dimethyl-isoxazol-4-yl)-1H-pyrrolo[2,3-b]pyridin-5-yl]-N,N-dimethyl-nicotinamide] | B (1.0-0.1 μM) | > 1000 nM | > 1000 nM |
| CN(C)C(=O)c1cncc(-c2cnc3[nH]cc(-c4ccccc4F)c3c2Cl)n1 [6-[4-Chloro-3-(2-fluoro-phenyl)-1H-pyrrolo[2,3-b]pyridin-5-y] [6-[4-Chloro-3-(2-fluoro-phenyl)-1H-pyrrolo[2,3-b]pyridin-5-yl]-pyrazine-2-carboxylic acid dimethylamide] | D (<0.01 μM) | > 1000 nM | > 1000 nM |
| CN(C)C(=O)c1cncc(-c2cnc3[nH]cc(-c4ccc(F)cc4)c3c2Cl)n1 [6-[4-Chloro-3-(4-fluoro-phenyl)-1H-pyrrolo[2,3-b]pyridin-5-yl]-pyrazine-2-carboxylic acid dimethylamide] | D (<0.01 μM) | 100 to 1000 nM | > 1000 nM |

Now from value to molecule, other results behind:

| ABL_T315I_0P (IC50) [1] | SMILES | GI50 (ABL P210WT BAF3 cells) | GI50 (ABL T315I BAF3 cells) |
| --- | --- | --- | --- |
| D (<0.01 μM) | COc1ccncc1-c1c[nH]c2ncc(-c3cncc(C(O)C(=O)N(C)C)c3)c(Cl)c12 (stereo not drawn) [2-{5-[4-Chloro-3-(4-methoxy-pyridin-3-yl)-1H-pyrrolo[2,3-b]pyridin-5-yl]-pyridin-3-yl}-2-hydroxy-N,N-dimethyl-acetamide] | 100 to 1000 nM | 100 to 1000 nM |
| D (<0.01 μM) | COc1ccccc1-c1c[nH]c2ncc(-c3cncc(C(O)C(=O)N(C)C)c3)c(C#N)c12 (stereo not drawn) [2-{5-[4-Cyano-3-(2-methoxy-phenyl)-1H-pyrrolo[2,3-b]pyridin-5-yl]-pyridin-3-yl}-2-hydroxy-N,N-dimethyl-acetamide] | > 1000 nM | > 1000 nM |
| D (<0.01 μM) | CCc1c(-c2cncc(C(O)C(=O)N(C)C)c2)cnc2[nH]cc(-c3ccccc3OC)c12 (stereo not drawn) [2-{5-[4-Ethyl-3-(2-methoxy-phenyl)-1H-pyrrolo[2,3-b]pyridin-5-yl]-pyridin-3-yl}-2-hydroxy-N,N-dimethyl-acetamide] | 100 to 1000 nM | 100 to 1000 nM |
| C (0.1-0.01 μM) | COc1ccccc1-c1c[nH]c2ncc(Br)c(N(C)CCO)c12 [2-{[5-Bromo-3-(2-methoxy-phenyl)-1H-pyrrolo[2,3-b]pyridin-4-yl]-methyl-amino}-ethanol] | > 1000 nM | > 1000 nM |
| D (<0.01 μM) | COc1ccccc1-c1c[nH]c2ncc(-c3cccc(C(=O)N(C)C)c3)c(C)c12 [3-[3-(2-Methoxy-phenyl)-4-methyl-1H-pyrrolo[2,3-b]pyridin-5-yl]-N,N-dimethyl-benzamide] | 10 to 100 nM | 10 to 100 nM |
| C (0.1-0.01 μM) | CN(C)C(=O)c1nc(-c2cnc3[nH]cc(-c4ccc(F)cc4)c3c2Cl)cnc1N [3-amino-6-[4-chloro-3-(4-fluoro-phenyl)-1H-pyrrolo[2,3-b]pyridin-5-yl]-pyrazine-2-carboxylic acid dimethylamide] | 100 to 1000 nM | 100 to 1000 nM |
| D (<0.01 μM) | COc1ccc(F)cc1-c1c[nH]c2ncc(-c3cnc(N)c(C(=O)N(C)C)n3)c(Cl)c12 [3-amino-6-[4-chloro-3-(5-fluoro-2-methoxy-phenyl)-1H-pyrrolo[2,3-b]pyridin-5-yl]-pyrazine-2-carboxylic acid dimethylamide] | < 10 nM | 10 to 100 nM |
| B (1.0-0.1 μM) | CN(C)C(=O)c1cncc(-c2cnc3[nH]nc(-c4ccccc4)c3c2Cl)c1 [5-(4-Chloro-3-phenyl-1H-pyrazolo[3,4-b]pyridin-5-yl)-N,N-dimethyl-nicotinamide] | > 1000 nM | > 1000 nM |
| B (1.0-0.1 μM) | COc1ccccc1-c1c[nH]c2ncc(Br)c(SC)c12 [5-Bromo-3-(2-methoxy-phenyl)-4-methylsulfanyl-1H-pyrrolo[2,3b]pyridine] | > 1000 nM | > 1000 nM |
| D (<0.01 μM) | CN(C)C(=O)c1cncc(-c2cnc3[nH]cc(-c4ccccc4Cl)c3c2Cl)c1 [5-[4-Chloro-3-(2-chloro-phenyl)-1H-pyrrolo[2,3-b]pyridin-5-yl]-N,N-dimethyl-nicotinamide] | 100 to 1000 nM | > 1000 nM |
| D (<0.01 μM) | COc1ccc(F)cc1-c1c[nH]c2ncc(-c3cncc(C(=O)N(C)C)c3)c(Cl)c12 [5-[4-Chloro-3-(5-fluoro-2-methoxy-phenyl)-1H-pyrrolo[2,3-b]pyridin-5-yl]-N,N-dimethyl-nicotinamide] | < 10 nM | 10 to 100 nM |
